Measured values: patent US5225425A, “Bis-aryl amide antagonists of platelet activating factor” (American Cyanamid Company, priority 1992, dated 1993)
“And” between values parts separate entries of the source, which are not always exact repeats. Equal entries are not always repeated. Structures can show the parent of a compound that is named as a salt. Where two headings read alike, the source gives them in different places.

Tests used:
PAF receptor = target: T1, PAF receptor (Oryctolagus cuniculus, UniProt G1TEI7); assay: Inhibition of PAF induced platelet aggregation in rabbit platelet rich plasma; assay type: cell-based, rabbit (New Zealand White); details: for inhibition at 10 µM: dose .00001 M
T1 construct: centrifuged at 800 rpm for 10-15 minutes at room temperature to recover the platelet rich plasma (PRP); from tissue; host or cells: platelets in platelet rich plasma from blood of male New Zealand White rabbits
T1 sequence (G1TEI7 1-342): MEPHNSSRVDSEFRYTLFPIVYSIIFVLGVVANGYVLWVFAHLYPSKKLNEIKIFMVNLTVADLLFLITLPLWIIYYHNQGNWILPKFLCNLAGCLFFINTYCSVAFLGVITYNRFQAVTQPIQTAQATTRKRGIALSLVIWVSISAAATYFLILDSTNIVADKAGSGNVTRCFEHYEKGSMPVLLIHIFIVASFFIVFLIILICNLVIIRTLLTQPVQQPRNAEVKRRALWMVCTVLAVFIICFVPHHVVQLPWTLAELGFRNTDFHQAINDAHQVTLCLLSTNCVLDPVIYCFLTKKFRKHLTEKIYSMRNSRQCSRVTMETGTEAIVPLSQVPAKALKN
Procedure: Test compounds are evaluated as PAF receptor antagonists in vitro by measuring inhibition of PAF (platelet activating factor) induced platelet aggregation. Platelet aggregation is measured by a modification of the method described in […], et. al., J. Med. Chem., 27 1174, 1984. […] All syringes and pipets are plastic. The blood is gently mixed and immediately centrifuged at 800 rpm for 10-15 minutes at room temperature to recover the platelet rich plasma (PRP). Platelet poor plasma (PPP) is prepared by centrifuging PRP at 2800 rpm for 10 minutes at room temperature. Dilutions (1:3000) of PRP in Isotone diluent are made and platelet counts are determined on a Coulter Thrombocounter which is standardized with platelet reference standards (Interscience Platelet Control, Portland, Oreg.). PRP platelet counts are adjusted to approximately 400,000-500,000 platelets/μl by the addition of PPP. L-PAF (Platelet Activating Factor) is obtained from Calbiochem. […] All solutions are made up in plastic tubes, stored on ice and protected from heat and light. Solutions are prepared fresh or frozen at -20° C. and used within 48 hours. Incubation mixtures consisted of 400 μl PRP, 50 μl of saline diluent or test compound and 50 μl of PAF agonist. More specifically, 400μl of PRP is stabilized in a cuvette for 1-2 minutes at 37° C. in the aggregometer to achieve a stable baseline, then 50 μl of saline or test compound is added and incubated for 5 minutes before addition of the challenge concentration of pAF. A submaximal concentration is determined from the dose response curve for PAF for that experiment. In general, the challenge concentration is 5E-8 or 1E-7M. Aggregation is monitored for 5 minutes. Samples containing test compound or diluent are run simultaneously for comparison. Test compounds are initially evaluated at a screening concentration of 1E-5M. […] The recording equipment consists of a dual channel Chronolog aggregometer connected to a dual channel 10MV full scale deflection Omniscribe chart recorder (Houston Instruments). The chart recorder is calibrated daily with the use of a suspension of Bio-Rad latex beads (S-X 12 400 mesh) which has a density slightly greater than rabbit PRP. […] These limits defined a full scale deflection. The aggregation traces are analyzed by a digitizing method (C. Kohler and B. Zoltan, J. Pharm. Methods, 12, 113, 1984) with x, y coordinate data stored in a computer file. A suitable program computes parameters of interest such as the magnitude of aggregation.

PAF = PAF induced lethality in mice; assay type: in vivo; details: PAF 150 μg/kg IV
Procedure: PAF given I.V. to mice causes an immediate hypotensive shock leading to death in 1 hour or less. […] Animals alive after 2 hours are counted and the activity of test compounds expressed as % survival corrected for any control (saline treated) animals which survived the PAF challenge.

LPS endotoxin = assay: Low dose, chronic mouse endotoxemia (LPS endotoxin); assay type: in vivo, Male Balb/c mice; details: day 6, LPS 20 mg/kg i.p.
From the text: Endotoxin administration produces a shock-like state characterized by vascular permeability changes, hypotension, neutropenia, thrombocytopenia,multiple organ damage and death. The major mediators released after endotoxin injection are TNF (tumor necrosis factor), PAF (platelet activating factor) and […] (interleukin I). PAF administration mimics the signs and symptoms of endotoxin induced shock and death and endotoxin also induces the release of PAF. Therefore, the effects of endotoxin should be blocked with a PAF antagonist.
Male Balb/c mice (approximately 20 g) are obtained from Charles River Laboratories and used after a one-two week acclimation period. Animals are given (ip) test compound dissolved in saline or water (sonicated and heated) at different time intervals prior to and after the ip injection of endotoxin (usually 2 hours before LPS endotoxin, and 3-4 hours after). Sigma E. Coli endotoxin, 0111:B4, phenol extraction, catalog #L2630 is used for these studies.
For the chronic endotoxin shock model, a lower dose of endotoxin is administered (generally 15 to 20 mg/kg i.p). This dose gives an LD80 in two to four days following LPS administration. Test compounds are given 2 hours before LPS and 3-4 hours after on the first day, followed by 3 or 4 consecutive days of BID dosing. The number of survivors in each group is recorded each day for a period of 5 to 7 days.
All mice challenged with LPS endotoxin = 20 mg/kg i.p.
CL test cpd given 2 hours before and 3-4 hours after LPS challenge on day
0, followed by BID dosing for 3-4 days.

[1] = PAF challenge 5.0000E-08 M, read-out: % INH of PAF induced platelet aggregation
[2] = PAF challenge 1.0000E-08 M, read-out: % INH of PAF induced platelet aggregation
[3] = PAF challenge .0000005 M, read-out: % INH of PAF induced platelet aggregation
[4] = PAF challenge 5E-9 M, read-out: % INH of PAF induced platelet aggregation

`CCCCCCCCCCCCCCOc1ccc(CC(=O)Nc2cccc(C[n+]3ccn4ccccc43)c2)cc1` showed an IC50 (PAF receptor; PAF challenge 5.0000E-08 M) of 1.5 µM and an inhibition at 10 µM (PAF receptor; [1]) of 91%.

`CCCCCCCCCCCCCCOc1ccc(CN(C(C)=O)c2cccc(C[n+]3ccc(C)c(C)c3)c2)cc1` [1-[[3-[acetyl[[4-(tetradecyloxy)phenyl]methyl]amino]phenyl]methyl]-3,4-dimethyl-pyridinium bromide] was tested, and the IC50 (PAF receptor; PAF challenge 5.0000E-08 M) was 12 µM and the inhibition at 10 µM (PAF receptor; [1]) was 52%.

`CCCCCCCCCCCCCCOc1ccc(CC(=O)Nc2cccc(-n3cc[n+](C)c3C)c2)cc1` [2,3-dimethyl-1-[3-[[[4-(tetradecyloxy)phenyl]acetyl]amino]phenyl]1H-imidazolium iodide] gave an IC50 (PAF receptor; PAF challenge 5.0000E-08 M) of 2.47 µM and an inhibition at 10 µM (PAF receptor; [1]) of 80%.

`CCCCCCCCCCCCCCOc1ccc(CC(=O)Nc2ccc(-n3cc[n+](C)c3C)cc2)cc1` [2,3-dimethyl-1-[4-[[[4-(tetradecyloxy)phenyl]acetyl]amino]phenyl]1H-imidazolium iodide] gave an IC50 (PAF receptor; PAF challenge 5.0000E-08 M) of 4.51 µM and an inhibition at 10 µM (PAF receptor; [1]) of 62%.

For `CCCCCCCCCCCCCCOc1ccc(CC(=O)Nc2cccc(C[n+]3cc(C)cc(C)c3)c2)cc1` [3,5-Dimethyl-1-[[3-[[[4-(tetradecyloxy)phenyl]acetyl]amino]phenyl]methyl]pyridinium bromide], the inhibition at 10 µM (PAF receptor; [1]) was 84%.

In the case of `CCCCCCCCCCCCCCOc1ccc(CC(=O)Nc2cccc(-c3scc[n+]3C)c2)cc1` [3-Methyl-2-[3-[[[4-(tetradecyloxy)phenyl]acetyl]amino]phenyl]thiazolium chloride], the IC50 (PAF receptor; PAF challenge 5.0000E-08 M) is reported as 12 µM and the inhibition at 10 µM (PAF receptor; [1]) is reported as 46%.

Work on `CCCCCCCCCCCCCCCCOc1ccc(OCC(=O)Nc2ccccc2C[n+]2csc(C)c2)cc1` [3-[[2-[[[4-(Hexadecyloxy)phenoxy]acetyl]amino]phenyl]methyl]-5-methyl-thiazolium bromide] yielded an IC50 (PAF receptor; PAF challenge 1.0000E-08 M) of 11.2 µM, an IC50 (PAF receptor; PAF challenge .0000005 M) of 3.8 µM and an inhibition at 10 µM (PAF receptor; [2]) of 60%. It also gave an inhibition at 10 µM (PAF receptor; [3]) of 83%.

Work on `CCCCCCCCCCCCCCOc1ccc(CCN(C(C)=O)c2cccc(C[n+]3csc(C)c3)c2)cc1` [3-[[3-[Acetyl[2-[4-(tetradecyloxy)phenyl]ethyl]amino]phenyl]methyl]-5-methyl-thiazolium bromide] yielded an IC50 (PAF receptor; PAF challenge 8.0000E-09 M) of 2.91 µM, an IC50 (PAF receptor; PAF challenge .0000005 M) of 4.3 µM and an inhibition at 10 µM (PAF receptor; PAF challenge 8.0000E-09 M, read-out: % INH of PAF induced platelet aggregation) of 85%. For the same molecule, the inhibition at 10 µM (PAF receptor; [3]) was 69%.

`CCCCCCCCCCCCCCOc1ccc(CN(C(C)=O)c2cccc(C[n+]3csc(C)c3)c2)cc1.[Br-]` [3-[[3-[Acetyl[[4-(tetradecyloxy)phenyl]methyl]amino]phenyl]methyl]-5-methylthiazolium bromide] was tested, and the inhibition at 10 µM (PAF receptor; [1]) was 98%, the “% Survival” value (PAF; 1 mg/kg I.V.) was 83% and the “% Survival” value (PAF; 5 mg/kg P.O.) was 52%. For the same molecule, the “% Survival” value (PAF; 10 mg/kg P.O.) was 75%, the “% Survival” value (PAF; 20 mg/kg P.O.) was 75% and the “% Survival” value (PAF; .25 mg/kg I.V.) was 100%. For the same molecule, the “% Survival” value (PAF; .5 mg/kg I.V.) was 83%.

With `CCCCCCCCCCCCCCCCOc1ccc(OCC(=O)Nc2cccc(C[n+]3csc(C)c3)c2)cc1` [3-[[3-[[[4-(Hexadecyloxy)phenoxy]acetyl]amino]phenyl]methyl]-5-methyl-thiazolium bromide] the IC50 (PAF receptor; PAF challenge 1.0000E-08 M) was 4.4 µM, the IC50 (PAF receptor; PAF challenge 5.0000E-08 M) was 5 µM and the inhibition at 10 µM (PAF receptor; [2]) was 93%. The inhibition at 10 µM (PAF receptor; [1]) was 72%.

`CCCCCCCCCCCCCCOc1ccc(CC(=O)Nc2cccc(C[n+]3ccsc3)c2)cc1.[Br-]` [3-[[3-[[[4-(tetradecyloxy)phenyl]acetyl]amino]phenyl]methyl]thiazolium bromide] gave an IC50 (PAF receptor; PAF challenge 5E-9 M) of 0.12 µM, an inhibition at 2.5 µM (PAF receptor; dose .0000025 M, PAF challenge 5.0000E-08 M, read-out: % INH of PAF induced platelet aggregation) of 97% and an inhibition at 10 µM (PAF receptor; [1]) of 100%. The inhibition at 10 µM (PAF receptor; [4]) was 98%, the “% Survival” value (PAF; 40 mg/kg P.O.) was 40% and the “% Survival” value (LPS endotoxin; dose 10 mg/kg i.p.) was 63%. For the same molecule, the “% Survival” value (LPS endotoxin; dose 20 mg/kg i.p.) was 40%.

With `CCCCCCCCCCCCCCOc1ccc(CN(C(C)=O)c2ccc(C[n+]3csc(C)c3)cc2)cc1` [3-[[4-[acetyl[[4-(tetradecyloxy)phenyl]methyl]amino]phenyl]methyl]-5-methyl-thiazolium bromide] the IC50 (PAF receptor; PAF challenge 5.0000E-08 M) was 2.1 µM and the inhibition at 0.1 µM (PAF receptor; dose .0000001 M, PAF challenge 5.0000E-08 M, read-out: % INH of PAF induced platelet aggregation) was 84%.

`CCCCCCCCCCCCCCOc1cccc(CC(=O)Nc2ccccc2C[n+]2csc(C)c2)c1` [5-Methyl-3-[[2-[[[3-(tetradecyloxy)phenyl]acetyl]amino]phenyl]methyl]thiazolium bromide] was tested, and the IC50 (PAF receptor; PAF challenge 5E-9 M) was 34 µM, the inhibition at 10 µM (PAF receptor; [1]) was 23% and the inhibition at 10 µM (PAF receptor; [4]) was 27%.

`CCCCCCCCCCCCCCOc1ccc(C(=O)Nc2cccc(C[n+]3csc(C)c3)c2)cc1` [5-Methyl-3-[[3-[[4-(tetradecyloxy)benzoyl]amino]phenyl]methyl]thiazolium bromide] gave an IC50 (PAF receptor; PAF challenge 5.0000E-08 M) of 5.97 µM and an inhibition at 10 µM (PAF receptor; [1]) of 54%.

Work on `CCCCCCCCCCCCCCOc1ccc(NC(=O)c2cccc(C[n+]3csc(C)c3)c2)cc1` [5-Methyl-3-[[3-[[[4-(tetradecyloxy)phenyl]amino]carbonyl]phenyl]methyl]thiazolium bromide] yielded an IC50 (PAF receptor; PAF challenge 5.0000E-08 M) of 2.7 µM and an inhibition at 10 µM (PAF receptor; [1]) of 89%.

`CCCCCCCCCCCCCCOc1ccc(NC(=O)Nc2cccc(C[n+]3csc(C)c3)c2)cc1` [5-Methyl-3-[[3-[[[[4-(tetradecyloxy)phenyl]amino]carbonyl]amino]phenyl]methyl]thiazolium bromide] gave an IC50 (PAF receptor; PAF challenge 5.0000E-08 M) of 1.5 µM, an IC50 (PAF receptor; PAF challenge .0000001 M) of 16.9 µM and an inhibition at 10 µM (PAF receptor; [1]) of 92%. The inhibition at 50 µM (PAF receptor; dose .00005 M, PAF challenge .0000001 M, read-out: % INH of PAF induced platelet aggregation) was 80%.

`CCCCCCCCCCCCCCOc1ccc(CN(C(=O)NC)c2cccc(C[n+]3csc(C)c3)c2)cc1.[Br-]` [5-methyl-3-[[3-[[(methylamino)carbonyl]-[[4-(tetradecyloxy)phenyl]methyl]amino]phenyl]methyl]-thiazolium bromide] showed an IC50 (PAF receptor; PAF challenge 5.0000E-08 M) of 0.46 µM, an IC50 (PAF receptor; PAF challenge .0000001 M) of 1.09 µM and an inhibition at 10 µM (PAF receptor; [1]) of 90%. The inhibition at 10 µM (PAF receptor; PAF challenge .0000001 M, read-out: % INH of PAF induced platelet aggregation) was 95%, the “% Survival” value (LPS endotoxin; dose 10 mg/kg i.p.) was 46% and the “% Survival” value (LPS endotoxin; dose 20 mg/kg i.p.) was 20%.

`CCCCCCCCCCCCCCOc1ccc(CC(=O)Nc2ccc(C[n+]3csc(C)c3)cc2)cc1.[Br-]` [5-methyl-3-[[4-[[[4-(tetradecyloxy)phenyl]acetyl]amino]phenyl]methyl]-thiazolium bromide] was tested, and the IC50 (PAF receptor; PAF challenge 5.0000E-08 M) was 0.18 µM and 0.32 µM and 1.3 µM, the inhibition at 10 µM (PAF receptor; [1]) was 92% and the “% Survival” value (PAF; 5 mg/kg P.O.) was 32%. For the same molecule, the “% Survival” value (PAF; 20 mg/kg P.O.) was 32%.

For `CCCCCCCCCCCCCCOc1ccc(CC(=O)Nc2cccc(-n3ccnc3C)c2)cc1` [N-[3-(2-methyl-1H-imidazol-1-yl)phenyl]-4-(tetradecyloxy)-benzeneacetamide monohydrochloride], the IC50 (PAF receptor; PAF challenge 5.0000E-08 M) was 18.6 µM and the inhibition at 10 µM (PAF receptor; [1]) was 34%.
